For 5 molecules, mutagenic call results are on record in PubChem BioAssay AID1259407 (Chemical Carcinogenesis Research Information System (CCRIS), 2018).

This data set deals with CCRIS mutagenicity, Ames/micronucleus/aberration tests. The data set is described as follows: CCRIS mutagenicity studies.
[1] abbreviates: Test System: AMES SALMONELLA TYPHIMURIUM, Strain/Indicator: TA98, Metabolic Activation: NONE, Method: STANDARD PLATE.
The mark [2] stands for this setting: Test System: AMES SALMONELLA TYPHIMURIUM, Strain/Indicator: TA100, Metabolic Activation: NONE, Method: STANDARD PLATE.
[3] abbreviates: Test System: AMES SALMONELLA TYPHIMURIUM, Strain/Indicator: TA102, Metabolic Activation: NONE, Method: STANDARD PLATE.
Where [4] appears, read: Test System: AMES SALMONELLA TYPHIMURIUM, Strain/Indicator: TA102, Metabolic Activation: RAT, LIVER, S-9, AROCLOR 1254, Method: STANDARD PLATE.
Where [5] appears, read: Test System: AMES SALMONELLA TYPHIMURIUM, Strain/Indicator: TA1535, Metabolic Activation: NONE, Method: STANDARD PLATE.

Active and inactive are the calls of the source. The rule behind the calls is not given here.

Regarding `CCOC(=O)C1=C(C)NC(C)=C(C(=O)OCC2COC3(CCCC3)O2)C1c1cccc(Cl)c1` (centres undefined), the mutagenic call runs as follows: (Test System: AMES SALMONELLA TYPHIMURIUM, Strain/Indicator: TA97, Metabolic Activation: NONE, Method: STANDARD PLATE) “inactive; negative”; (Test System: AMES SALMONELLA TYPHIMURIUM, Strain/Indicator: TA97, Metabolic Activation: RAT, LIVER, S-9, Method: STANDARD PLATE) “inactive; negative”; under setting [1], “inactive; negative”; (Test System: AMES SALMONELLA TYPHIMURIUM, Strain/Indicator: TA98, Metabolic Activation: RAT, LIVER, S-9, Method: STANDARD PLATE) “inactive; negative”; under setting [2], “inactive; negative”; (Test System: AMES SALMONELLA TYPHIMURIUM, Strain/Indicator: TA100, Metabolic Activation: RAT, LIVER, S-9, Method: STANDARD PLATE) “inactive; negative”. Moreover, the mutagenic call runs as follows: under setting [3], “inactive; negative”; (Test System: AMES SALMONELLA TYPHIMURIUM, Strain/Indicator: TA102, Metabolic Activation: RAT, LIVER, S-9, Method: STANDARD PLATE) “inactive; negative”; (Test System: CHINESE HAMSTER V-79, Strain/Indicator: V-79 (HPRT)/6-THIOGUANINE, Metabolic Activation: NONE) “inactive; negative”.
Take `NNC(=O)c1ccncc1`: the mutagenic call was “inactive; negative” (Test System: AMES SALMONELLA TYPHIMURIUM, Strain/Indicator: G46, Metabolic Activation: HAMSTER, LIVER, HOMOGENATE (HEAT-INACTIVATED), Method: PREINCUBATION); “active; positive” (Test System: AMES SALMONELLA TYPHIMURIUM, Strain/Indicator: G46, Metabolic Activation: HAMSTER, LIVER, HOMOGENATE, Method: PREINCUBATION); “active; positive” (Test System: AMES SALMONELLA TYPHIMURIUM, Strain/Indicator: G46, Metabolic Activation: MOUSE, LIVER, HOMOGENATE, Method: PREINCUBATION); “inactive; negative” (Test System: AMES SALMONELLA TYPHIMURIUM, Strain/Indicator: G46, Metabolic Activation: NONE, Method: STANDARD PLATE); “active; positive” (Test System: AMES SALMONELLA TYPHIMURIUM, Strain/Indicator: G46, Metabolic Activation: RAT, LIVER, HOMOGENATE, Method: PREINCUBATION); “active; positive” (Test System: AMES SALMONELLA TYPHIMURIUM, Strain/Indicator: TA92, Metabolic Activation: NONE, Method: STANDARD PLATE). The mutagenic call by setting is: (Test System: AMES SALMONELLA TYPHIMURIUM, Strain/Indicator: TA100, Metabolic Activation: MOUSE, LIVER, S-9, Method: STANDARD PLATE) “inactive; negative”; under setting [2], “active; positive”; under setting [4], “inactive; negative”; (Test System: AMES SALMONELLA TYPHIMURIUM, Strain/Indicator: TA1535, Metabolic Activation: HAMSTER, LIVER, HOMOGENATE (HEAT-INACTIVATED), Method: PREINCUBATION) “inactive; negative”; (Test System: AMES SALMONELLA TYPHIMURIUM, Strain/Indicator: TA1535, Metabolic Activation: HAMSTER, LIVER, HOMOGENATE, Method: PREINCUBATION) “active; positive”; (Test System: AMES SALMONELLA TYPHIMURIUM, Strain/Indicator: TA1535, Metabolic Activation: MOUSE, LIVER, HOMOGENATE, Method: PREINCUBATION) “active; positive”. In addition, the mutagenic call (Test System: AMES SALMONELLA TYPHIMURIUM, Strain/Indicator: TA1535, Metabolic Activation: MOUSE, LIVER, POSTMITOCHONDRIAL SUPERNATANT, Method: PREINCUBATION) is “inactive; negative”; the mutagenic call (Test System: AMES SALMONELLA TYPHIMURIUM, Strain/Indicator: TA1535, Metabolic Activation: MOUSE, LIVER, S-9, Method: PREINCUBATION) was “inactive; negative”; the mutagenic call under setting [5] is “active; positive”; the mutagenic call (Test System: AMES SALMONELLA TYPHIMURIUM, Strain/Indicator: TA1535, Metabolic Activation: RAT, LIVER, HOMOGENATE, Method: PREINCUBATION) is “active; positive”.
For `Cn1c(N=[N+]=[N-])nc2ccccc21`, under setting [1], the mutagenic call was “active; positive”.
Turning to `CN(C)C(=O)c1nc2n(n1)-c1ccc(Cl)cc1C(c1ccccc1Cl)=NC2`, the mutagenic call by setting is: under setting [1], “inactive; negative”; (Test System: AMES SALMONELLA TYPHIMURIUM, Strain/Indicator: TA98, Metabolic Activation: RAT, LIVER, S-9, AROCLOR 1254, Method: STANDARD PLATE) “inactive; negative”; under setting [2], “inactive; negative”; (Test System: AMES SALMONELLA TYPHIMURIUM, Strain/Indicator: TA100, Metabolic Activation: RAT, LIVER, S-9, AROCLOR 1254, Method: STANDARD PLATE) “inactive; negative”; under setting [3], “inactive; negative”; under setting [4], “inactive; negative”. Further, the mutagenic call runs as follows: under setting [5], “inactive; negative”; (Test System: AMES SALMONELLA TYPHIMURIUM, Strain/Indicator: TA1535, Metabolic Activation: RAT, LIVER, S-9, AROCLOR 1254, Method: STANDARD PLATE) “inactive; negative”; (Test System: AMES SALMONELLA TYPHIMURIUM, Strain/Indicator: TA1537, Metabolic Activation: NONE, Method: STANDARD PLATE) “inactive; negative”; (Test System: AMES SALMONELLA TYPHIMURIUM, Strain/Indicator: TA1537, Metabolic Activation: RAT, LIVER, S-9, AROCLOR 1254, Method: STANDARD PLATE) “inactive; negative”; (Test System: E. COLI, Strain/Indicator: WP2 UVRA, Metabolic Activation: NONE, Method: STANDARD PLATE) “inactive; negative”; (Test System: E. COLI, Strain/Indicator: WP2 UVRA, Metabolic Activation: RAT, LIVER, S-9, AROCLOR 1254, Method: STANDARD PLATE) “inactive; negative”.
`C=CC(=O)OCCOCCOCCOCCOC(=O)C=C`: the mutagenic call (Test System: AMES SALMONELLA TYPHIMURIUM, Strain/Indicator: TA98, Metabolic Activation: HAMSTER, LIVER, S-9, AROCLOR 1254 (10%), Method: PREINCUBATION) was “inactive; negative”; the mutagenic call (Test System: AMES SALMONELLA TYPHIMURIUM, Strain/Indicator: TA98, Metabolic Activation: NONE, Method: PREINCUBATION) is “inactive; negative”; the mutagenic call (Test System: AMES SALMONELLA TYPHIMURIUM, Strain/Indicator: TA98, Metabolic Activation: RAT, LIVER, S-9, AROCLOR 1254 (10%), Method: PREINCUBATION) was “inactive; negative”; the mutagenic call (Test System: AMES SALMONELLA TYPHIMURIUM, Strain/Indicator: TA100, Metabolic Activation: HAMSTER, LIVER, S-9, AROCLOR 1254 (10%), Method: PREINCUBATION) was “inactive; negative”; the mutagenic call (Test System: AMES SALMONELLA TYPHIMURIUM, Strain/Indicator: TA100, Metabolic Activation: NONE, Method: PREINCUBATION) is “inactive; negative”; the mutagenic call (Test System: AMES SALMONELLA TYPHIMURIUM, Strain/Indicator: TA100, Metabolic Activation: RAT, LIVER, S-9, AROCLOR 1254 (10%), Method: PREINCUBATION) was “inactive; negative”. The mutagenic call was “inactive; negative” (Test System: AMES SALMONELLA TYPHIMURIUM, Strain/Indicator: TA1535, Metabolic Activation: HAMSTER, LIVER, S-9, AROCLOR 1254 (10%), Method: PREINCUBATION); “inactive; negative” (Test System: AMES SALMONELLA TYPHIMURIUM, Strain/Indicator: TA1535, Metabolic Activation: NONE, Method: PREINCUBATION); “inactive; negative” (Test System: AMES SALMONELLA TYPHIMURIUM, Strain/Indicator: TA1535, Metabolic Activation: RAT, LIVER, S-9, AROCLOR 1254 (10%), Method: PREINCUBATION); “inactive; negative” (Test System: AMES SALMONELLA TYPHIMURIUM, Strain/Indicator: TA1537, Metabolic Activation: HAMSTER, LIVER, S-9, AROCLOR 1254 (10%), Method: PREINCUBATION); “inactive; negative” (Test System: AMES SALMONELLA TYPHIMURIUM, Strain/Indicator: TA1537, Metabolic Activation: NONE, Method: PREINCUBATION); “inactive; negative” (Test System: AMES SALMONELLA TYPHIMURIUM, Strain/Indicator: TA1537, Metabolic Activation: RAT, LIVER, S-9, AROCLOR 1254 (10%), Method: PREINCUBATION). The mutagenic call runs as follows: (Test System: CHINESE HAMSTER OVARY, Strain/Indicator: CHO-K1-BH4 (HGPRT)/6-THIOGUANINE, Metabolic Activation: NONE, Method: SUSPENSION/PLATE) “active; positive”; (Test System: CHINESE HAMSTER OVARY, Strain/Indicator: CHO-K1-BH4 (HGPRT), Metabolic Activation: NONE, Method: MONOLAYER) “active; positive”; (Test System: CHINESE HAMSTER OVARY, Strain/Indicator: CHO-K1-BH4 (HGPRT), Metabolic Activation: NONE, Method: SUSPENSION/PLATE) “active; positive”; (Test System: MOUSE LYMPHOMA, Strain/Indicator: L5178Y (TK+/TK-), Metabolic Activation: NONE, Method: SUSPENSION/PLATE) “active; positive”.
